This data set deals with mesenchymal stem cells (MSCs). Briefly: Cardiomyogenic differentiation of cultured rat MSCs in vitro (myotube formation, immunofluorescent staining). In kind it is cell-based. The note with it: for staining for cardiac specific troponin I / staining for myosin heavy chain: cultured MSCs, 21st day. How it is done:
An incision was made in the hindlimb of each rat while the rat was under general anesthesia. An 18-gauge needle was punctured to the bone and used to aspirate bone marrow (1 ml) from the tibia. The marrow aspirate was transferred to sterile tubes, which contained 10 ml Iscove's modified Dulbecco medium (TMDM; Gibco Laboratories, Gaithersberg, Md.), containing antibiotics (penicillin G, 100 U/ml; streptomycin, 100 μg/ml) and 1000 IU heparin. The marrow cell suspension was dispersed into single cells using a 23-gauge needle. The tube was spun at 2000 rpm for 5 min to pellet the cells. After removing the supernatant and fat layer, the cell pellet was re-suspended with IMDM. To separate bone marrow cells and red blood cells, the density centrifugation method described by Yablonka-Reuveni and Nameroff (Histochemistry, 87:27-38, 1987) was used. First, the cell suspension was loaded onto 20% and 60% Percoll (Sigma Chemical Co., St. Louis, Mo.) layers, which were piled up in a tube, and the tube was centrifuged at 14000 rpm. for 10 minutes. […] The cells were centrifuged at 2,000 rpm for 10 minutes and then washed with phosphate-buffered saline (PBS) to remove the Percoll. This was repeated and then the cell pellet was resuspended in culture medium and used for in vitro and in vivo studies.
To identify the optimal conditions for inducing mesenchymal stem cell (MSC) differentiation by 5-azacytidine, the cells were cultured in IMDM containing 10% fetal bovine serum and antibiotics, with 5-azacytidine (5-aza: 0.1, 1, 5, 10, 20, and 100 μM; n=6 for each group), with insulin (1 nM; n=6), or with TGFβ1 (10 ng/ml; n=6). The cells were incubated with these agents for 24 hours and then washed with PBS. The medium was changed twice a week for 21 days. Almost all the hematopoietic stem cells were washed away with the medium changes.
To test the effect of cell passaging on cardiomyogenic differentiation of MSCs, samples of MSCs, prepared as described above, were passaged once prior to preparing the cell cultures described below. In this case, the term passaging refers to the distribution of cultured cells growing in a culture dish into new dishes after the cells reach confluence (i.e. when the cells contact each other and cover the surface of the dish).
One group of the MSCs, prepared as above, was, in turn, divided into two groups: A (control) and B, each group having 6 samples. Cells of the control group, A, were cultured for 7 days in IMDM containing 10% fetal bovine serum and antibiotics. The MSCs of group B were initially cultured for 2 days in the above medium after which 5-aza (10 μM) was added to the culture medium. After a 24 hour exposure to 5-aza, the compound was washed out of the culture and the cells were culturing in the medium described above for 4 days more.
Following the above culturing period, the cells from both groups were stained by immunocytofluorescence to detect the presence of cardiac-specific troponin I (a contractile apparatus-specific protein found only in cardiomyocytes) or muscle-specific myosin heavy chain. Briefly, the staining method entailed washing the cells with phosphate-buffer saline (PBS), followed by incubation in methanol at −20° C. for 20 minutes. The dishes were then washed with PBS three times. Monoclonal antibodies specific against cardiac troponin I (Spectral Diagnostic, Toronto) or against myosin heavy chain (Biogenesis, USA), were added to the cells and the dishes were incubated at 37° C. for 1 hour. To remove unbound antibody, the dishes were gently shaken at room temperature and washed three times with PBS. A rabbit antibody conjugated with FITC (fluorescein isothiocyanate) against mouse IgG was added to the dishes, after which incubation and rinsing with PBS were performed as described above for the first antibody. Observations were made and photos were taken. […]

The mark [1] stands for this setting: cultured bone marrow MSCs, 5-aza added on third day, seen on 10th day of culture.

The values below come from US20050031600A1, “Cardiac function by mesenchymal stem cell transplantation” (Genzyme Corporation, priority 1998, published 2005).

With insulin, the “staining for cardiac specific troponin I” value is “negative” and the “staining for myosin heavy chain” value is “negative”. Under setting [1], the myotube formation result is “did not form myotubes”.
`Nc1ncn([C@@H]2O[C@H](CO)[C@@H](O)[C@H]2O)c(=O)n1` [5-aza, 5-azacytidine]: the “staining for cardiac specific troponin I” value is listed as “stained positively” and the “staining for myosin heavy chain” value is given as “stained positively”. Also, the myotube formation result (5 μM 5-aza for 24 hours) is listed as “myotube formation was present”. For the same compound, the “number of MSCs in cultures” value (10 μM 5-aza added on first or second day compared with third day after isolation) is “much smaller”. In addition, under “10 μM 5-aza compared with 5 μM 5-aza”, the “number of myotubes, visually determined” value is listed as “greater”. Further, the myotube formation entry (10 μM 5-aza for 24 hours) is “myotube formation was present”. Further, under “MSCs incubated with 5-aza at 20 μM”, the necrotic cells result is on record as “more than 50%”. For the setting “MSCs incubated with 5-aza at 100 μM”, the necrotic cells result is “more than 50%”. Moreover, the “differentiation into cardiomyocyte-like cells (myotube formation)” value (MSCs passaged once, then 5-aza 10 μM for 24 hours) is “did not differentiate into cardiomyocyte-like cells”. Also, for the setting “concentrations of 5-aza lower than 5 μM”, the cell morphology entry was “morphologically similar to the control cells”. Under setting [1], the myotube formation result is “formed multinucleated myotubes”.
Consider TGFβ1, for which the “staining for cardiac specific troponin I” value is on record as “negative” and the “staining for myosin heavy chain” value is recorded as “negative”. Moreover, under setting [1], the myotube formation entry is recorded as “did not form myotubes”.
